#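 Following 48 hours of exposure in 96-well plates, responses at five concentrations were used to interpolate endpoints linearly. At the GI50, growth is halved. Definition used: TGI = concentration required for complete inhibition of growth.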
# How the values were obtained:
# Test in all cases: NCI-60 cell line screen, 48 h
# SK-MEL-2 melanoma = system: SK-MEL-2 melanoma
# HCT-15 colon = system: HCT-15 colon
# OVCAR-8 ovarian = system: OVCAR-8 ovarian
# SN12C renal = system: SN12C renal
# RXF 393 renal = system: RXF 393 renal
# CCRF-CEM leukemia = system: CCRF-CEM leukemia
# BT-549 breast = system: BT-549 breast
# MOLT-4 leukemia = system: MOLT-4 leukemia
# EKVX NSCLC = system: EKVX NSCLC
# MDA-MB-435 = system: MDA-MB-435
# UACC-62 melanoma = system: UACC-62 melanoma
# UO-31 renal = system: UO-31 renal
# SW-620 colon = system: SW-620 colon
# K-562 leukemia = system: K-562 leukemia
# OVCAR-3 ovarian = system: OVCAR-3 ovarian
# NCI/ADR-RES ovarian = system: NCI/ADR-RES ovarian
# NCI-H226 lung = system: NCI-H226 lung
# RPMI-8226 leukemia = system: RPMI-8226 leukemia
# MDA-MB-231 breast = system: MDA-MB-231 breast
# OVCAR-5 ovarian = system: OVCAR-5 ovarian
# SK-MEL-5 melanoma = system: SK-MEL-5 melanoma
# U251 CNS = system: U251 CNS
# PC-3 prostate = system: PC-3 prostate
# A498 renal = system: A498 renal
# 786-0 renal = system: 786-0 renal
# DU-145 prostate = system: DU-145 prostate
# SF-295 CNS = system: SF-295 CNS
# TK-10 renal = system: TK-10 renal
# NCI-H23 lung = system: NCI-H23 lung
# MCF7 breast = system: MCF7 breast
# OVCAR-4 ovarian = system: OVCAR-4 ovarian
# SR leukemia = system: SR leukemia
# IGROV1 ovarian = system: IGROV1 ovarian
# SF-539 CNS = system: SF-539 CNS
# HCC-2998 colon = system: HCC-2998 colon
# KM12 colon = system: KM12 colon
# HOP-62 NSCLC = system: HOP-62 NSCLC
# HOP-92 NSCLC = system: HOP-92 NSCLC
# M14 melanoma = system: M14 melanoma
# MALME-3M melanoma = system: MALME-3M melanoma
# LOX IMVI melanoma = system: LOX IMVI melanoma
# A549 NSCLC = system: A549 NSCLC
# HS 578T breast = system: HS 578T breast
# ACHN renal = system: ACHN renal
# CAKI-1 renal = system: CAKI-1 renal
# HL-60(TB) leukemia = system: HL-60(TB) leukemia
# NCI-H460 lung = system: NCI-H460 lung
# HCT-116 colon = system: HCT-116 colon
# SF-268 CNS = system: SF-268 CNS
# NCI-H522 lung = system: NCI-H522 lung
# UACC-257 melanoma = system: UACC-257 melanoma
# SNB-75 CNS = system: SNB-75 CNS
# SK-OV-3 ovarian = system: SK-OV-3 ovarian
# HT29 colon = system: HT29 colon
# T-47D breast = system: T-47D breast
# SK-MEL-28 melanoma = system: SK-MEL-28 melanoma
# COLO 205 colon = system: COLO 205 colon
smiles,measurement,setting,value
COc1ccc2cc(/C=C/C(=O)c3ccc(Cl)cc3Cl)ccc2c1,GI50,SK-MEL-2 melanoma,24 µM
same,TGI,SK-MEL-2 melanoma,69.9 µM
same,GI50,HCT-15 colon,31 µM
same,TGI,HCT-15 colon,> 100 µM
same,GI50,OVCAR-8 ovarian,26.6 µM
same,TGI,OVCAR-8 ovarian,75.4 µM
same,GI50,SN12C renal,20.3 µM
same,TGI,SN12C renal,50.9 µM
same,GI50,RXF 393 renal,20.4 µM
same,TGI,RXF 393 renal,65.6 µM
same,GI50,CCRF-CEM leukemia,21 µM
same,TGI,CCRF-CEM leukemia,57.2 µM
same,GI50,BT-549 breast,33 µM
same,TGI,BT-549 breast,96.7 µM
same,GI50,MOLT-4 leukemia,11.3 µM
same,TGI,MOLT-4 leukemia,35.5 µM
same,GI50,EKVX NSCLC,41.7 µM
same,TGI,EKVX NSCLC,> 100 µM
same,GI50,MDA-MB-435,25.4 µM
same,TGI,MDA-MB-435,75.3 µM
same,GI50,UACC-62 melanoma,21.6 µM
same,TGI,UACC-62 melanoma,79.4 µM
same,GI50,UO-31 renal,36.6 µM
same,TGI,UO-31 renal,> 100 µM
same,GI50,SW-620 colon,24.1 µM
same,TGI,SW-620 colon,67 µM
same,GI50,K-562 leukemia,20.5 µM
same,TGI,K-562 leukemia,68.8 µM
same,GI50,OVCAR-3 ovarian,26.2 µM
same,TGI,OVCAR-3 ovarian,> 100 µM
same,GI50,NCI/ADR-RES ovarian,31 µM
same,TGI,NCI/ADR-RES ovarian,96.5 µM
same,GI50,NCI-H226 lung,30.4 µM
same,TGI,NCI-H226 lung,> 100 µM
same,GI50,RPMI-8226 leukemia,16.2 µM
same,TGI,RPMI-8226 leukemia,47.2 µM
same,GI50,MDA-MB-231 breast,27.3 µM
same,TGI,MDA-MB-231 breast,> 100 µM
same,GI50,OVCAR-5 ovarian,45.7 µM
same,TGI,OVCAR-5 ovarian,> 100 µM
same,GI50,SK-MEL-5 melanoma,20.9 µM
same,TGI,SK-MEL-5 melanoma,45.2 µM
same,GI50,U251 CNS,27.9 µM
same,TGI,U251 CNS,> 100 µM
same,GI50,PC-3 prostate,44.7 µM
same,TGI,PC-3 prostate,> 100 µM
same,GI50,A498 renal,28.8 µM
same,TGI,A498 renal,58.9 µM
same,GI50,786-0 renal,36.7 µM
same,TGI,786-0 renal,> 100 µM
same,GI50,DU-145 prostate,32.6 µM
same,TGI,DU-145 prostate,> 100 µM
same,GI50,SF-295 CNS,83.3 µM
same,TGI,SF-295 CNS,> 100 µM
same,GI50,TK-10 renal,77.9 µM
same,TGI,TK-10 renal,> 100 µM
same,GI50,NCI-H23 lung,47 µM
same,TGI,NCI-H23 lung,> 100 µM
same,GI50,MCF7 breast,4.83 µM
same,TGI,MCF7 breast,43.4 µM
same,GI50,OVCAR-4 ovarian,74.1 µM
same,TGI,OVCAR-4 ovarian,> 100 µM
same,GI50,SR leukemia,9.19 µM
same,TGI,SR leukemia,28.7 µM
same,GI50,IGROV1 ovarian,42.9 µM
same,TGI,IGROV1 ovarian,> 100 µM
same,GI50,SF-539 CNS,72.9 µM
same,TGI,SF-539 CNS,> 100 µM
same,GI50,HCC-2998 colon,20.6 µM
same,TGI,HCC-2998 colon,48.8 µM
same,GI50,KM12 colon,29 µM
same,TGI,KM12 colon,85.4 µM
same,GI50,HOP-62 NSCLC,39.3 µM
same,TGI,HOP-62 NSCLC,> 100 µM
same,GI50,HOP-92 NSCLC,97.7 µM
same,TGI,HOP-92 NSCLC,> 100 µM
same,GI50,M14 melanoma,30.5 µM
same,TGI,M14 melanoma,> 100 µM
same,GI50,MALME-3M melanoma,27 µM
same,TGI,MALME-3M melanoma,73.9 µM
same,GI50,LOX IMVI melanoma,24.1 µM
same,TGI,LOX IMVI melanoma,60.4 µM
same,GI50,A549 NSCLC,26 µM
same,TGI,A549 NSCLC,> 100 µM
same,GI50,HS 578T breast,39.3 µM
same,TGI,HS 578T breast,> 100 µM
same,GI50,ACHN renal,35.4 µM
same,TGI,ACHN renal,> 100 µM
same,GI50,CAKI-1 renal,42.7 µM
same,TGI,CAKI-1 renal,89.1 µM
same,GI50,HL-60(TB) leukemia,17.5 µM
same,TGI,HL-60(TB) leukemia,41 µM
same,GI50,NCI-H460 lung,27.4 µM
same,TGI,NCI-H460 lung,> 100 µM
same,GI50,HCT-116 colon,16.9 µM
same,TGI,HCT-116 colon,46 µM
same,GI50,SF-268 CNS,32.9 µM
same,TGI,SF-268 CNS,> 100 µM
same,GI50,NCI-H522 lung,21.6 µM
same,TGI,NCI-H522 lung,> 100 µM
same,GI50,UACC-257 melanoma,39.5 µM
same,TGI,UACC-257 melanoma,> 100 µM
CC(=O)OC12C3C4C1C1C2C3C41OC(C)=O (configuration not stated),TGI,SK-MEL-2 melanoma,> 100 µM
same,TGI,HCT-15 colon,> 100 µM
same,TGI,OVCAR-8 ovarian,> 100 µM
same,TGI,SN12C renal,> 100 µM
same,TGI,RXF 393 renal,> 100 µM
same,TGI,CCRF-CEM leukemia,> 100 µM
same,TGI,BT-549 breast,> 100 µM
same,TGI,MOLT-4 leukemia,> 100 µM
same,TGI,EKVX NSCLC,> 100 µM
same,TGI,MDA-MB-435,> 100 µM
same,TGI,UACC-62 melanoma,> 100 µM
same,TGI,UO-31 renal,> 100 µM
same,TGI,SW-620 colon,> 100 µM
same,TGI,K-562 leukemia,> 100 µM
same,TGI,OVCAR-3 ovarian,> 100 µM
same,TGI,NCI/ADR-RES ovarian,> 100 µM
same,TGI,NCI-H226 lung,> 100 µM
same,TGI,RPMI-8226 leukemia,> 100 µM
same,TGI,MDA-MB-231 breast,> 100 µM
same,TGI,OVCAR-5 ovarian,> 100 µM
same,TGI,SK-MEL-5 melanoma,> 100 µM
same,TGI,U251 CNS,> 100 µM
same,TGI,PC-3 prostate,> 100 µM
same,TGI,A498 renal,> 100 µM
same,TGI,786-0 renal,> 100 µM
same,TGI,DU-145 prostate,> 100 µM
same,TGI,SF-295 CNS,> 100 µM
same,TGI,TK-10 renal,> 100 µM
same,TGI,SNB-75 CNS,> 100 µM
same,TGI,SK-OV-3 ovarian,> 100 µM
same,TGI,HT29 colon,> 100 µM
same,TGI,NCI-H23 lung,> 100 µM
same,TGI,MCF7 breast,> 100 µM
same,TGI,OVCAR-4 ovarian,> 100 µM
same,TGI,SR leukemia,> 100 µM
same,TGI,IGROV1 ovarian,> 100 µM
same,TGI,SF-539 CNS,> 100 µM
same,TGI,HCC-2998 colon,> 100 µM
same,TGI,KM12 colon,> 100 µM
same,TGI,HOP-62 NSCLC,> 100 µM
same,TGI,HOP-92 NSCLC,> 100 µM
same,TGI,M14 melanoma,> 100 µM
same,TGI,T-47D breast,> 100 µM
same,TGI,LOX IMVI melanoma,> 100 µM
same,TGI,A549 NSCLC,> 100 µM
same,TGI,SK-MEL-28 melanoma,> 100 µM
same,TGI,ACHN renal,> 100 µM
same,TGI,CAKI-1 renal,> 100 µM
same,TGI,HL-60(TB) leukemia,> 100 µM
same,TGI,NCI-H460 lung,> 100 µM
same,TGI,HCT-116 colon,> 100 µM
same,TGI,SF-268 CNS,> 100 µM
same,TGI,COLO 205 colon,> 100 µM
same,TGI,NCI-H522 lung,> 100 µM
same,TGI,UACC-257 melanoma,> 100 µM
CCOC(=O)c1sc(-c2ccc(OS(=O)(=O)c3ccccc3[N+](=O)[O-])c(C=O)c2)nc1C,GI50,RXF 393 renal,1.62 µM
same,TGI,RXF 393 renal,5.77 µM
same,GI50,CCRF-CEM leukemia,1.83 µM
same,TGI,CCRF-CEM leukemia,4.49 µM
same,GI50,UO-31 renal,2.36 µM
same,TGI,UO-31 renal,> 100 µM
same,GI50,K-562 leukemia,1.61 µM
same,TGI,K-562 leukemia,> 100 µM
same,GI50,A498 renal,0.532 µM
same,TGI,A498 renal,7.57 µM
same,GI50,DU-145 prostate,3.24 µM
same,TGI,DU-145 prostate,> 100 µM
same,GI50,SNB-75 CNS,1.37 µM
same,TGI,SNB-75 CNS,8.44 µM
same,GI50,SR leukemia,1.96 µM
same,TGI,SR leukemia,> 100 µM
same,GI50,HOP-92 NSCLC,1.92 µM
same,TGI,HOP-92 NSCLC,5.5 µM
same,GI50,HS 578T breast,2.99 µM
same,TGI,HS 578T breast,> 100 µM

# Reference: PubChem BioAssay (NCI)
